# Laboratory results from patent publication US6344203B1, “Mimicking peptides in cancer therapy” (The Austin Research Institute, priority 1995, dated 2002).
# Where two headings read alike, the source gives them in different places. No end group written: not given here.
# T1: IB4 lectin (Griffonia simplicifolia, UniProt Q8W1R6)
# T1 sequence (Q8W1R6 1-247): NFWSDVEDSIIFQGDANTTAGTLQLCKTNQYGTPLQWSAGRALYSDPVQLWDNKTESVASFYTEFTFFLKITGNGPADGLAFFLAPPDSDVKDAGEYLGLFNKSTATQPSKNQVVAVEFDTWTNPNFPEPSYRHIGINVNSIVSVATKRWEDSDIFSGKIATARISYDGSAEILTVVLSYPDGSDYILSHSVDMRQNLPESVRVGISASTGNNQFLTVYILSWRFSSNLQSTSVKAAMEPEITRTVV
# B1: Scram pep 1 (peptide)
# peptide: WEADLHWS
# B2: Muc pep 11 (peptide)
# peptide: TSSASTGHATPLPVTP
# B3: Muc pep 6 (peptide)
# peptide: TGSGHASSTPGGEKETSAQRSSVP
# B4: Gal pep 1 (DAHWESWL), synthetic peptide (peptide)
# peptide: DAHWESWL
# B5: Muc pep 1 (peptide)
# peptide: CPAHGVTSAPDTRPAPGSTAP
# B6: CD48 pep 1 (peptide)
# peptide: YTFDQKIVEWDSRKSKC
# Experiments:
# IB4 lectin [1] = biological target: T1, IB4 lectin; experiment: Elisa: inhibition of IB4 lectin binding to Galα(1,3)Gal-BSA; settings: for Inhibition of binding of IB4 to Galα(1,3)Gal-BSA / Inhibition of IB4 lectin binding to Galα(1,3)Gal-BSA (in words): Elisa; for Inhibition of binding of IB4 to Galα(1,3)Gal-BSA: peptide concentration 5 mM (FIG. 8a); for Inhibition of IB4 lectin binding to Galα(1,3)Gal-BSA (in words): varying concentrations of inhibitor
# Experimental: (§1) 50 μl of either purified anti-Galα(1,3)Ga IgG or biotinylated IB4 lectin was added to the wells, incubated for 45 minutes at 22° C., washed with PBS-0.05% Tween 20, and 50 μl of the relevant IIRP conjugate added and incubated for a further 45 minutes before washing and the addition of 50 μl of substrate (2,2′ Azino-di-B-ethylbenzthiozoline (Zymed, San Francisco, Calif.)) and reading the OD405.
# (§2) An Elisa was established to calculate the relative “affinity” of the Gal pep 1 (SEQ ID No. 1) for the IB4 lectin and for human anti-Galα(1,3)Gal antibodies, and to compare these with the affinities for α-galactosyl sugars.
# (§3) Peptides or carbohydrates were examined cytofluorographically for their ability to inhibit antibody/lectin binding to the cell surface using a FACSCAN flow cytometer (Becton Dickinson, USA)[20]: 25 μl of inhibitor was mixed with 25 μl of antibody of lectin and incubated at 22° C. for 3 hours (peptides) or at 4° C. for 16 hours (carbohydrates)[14], prior to addition of appropriate targets. An Elisa assay was used to calculate the relative affinities of the sugars or the peptides for both IB4 lectin and antibodies, and were defined as the molar concentration of inhibitor giving 50% inhibition of the maximal binding of lectin or antibody.
# [2] = system: human anti-Galα(1,3)Gal IgG antibodies; experiment: Elisa: inhibition of anti-Galα(1,3)Gal IgG binding to Galα(1,3)Gal-BSA; settings: for Inhibition of binding of anti-Galα(1,3)Gal IgG to Galα(1,3)Gal-BSA / Inhibition of anti-Galα(1,3)Gal IgG binding to Galα(1,3)Gal-BSA (in words): Elisa; for Inhibition of binding of anti-Galα(1,3)Gal IgG to Galα(1,3)Gal-BSA: peptides at 5 mM (FIG. 8b); for Inhibition of anti-Galα(1,3)Gal IgG binding to Galα(1,3)Gal-BSA (in words): varying concentrations of inhibitor
# Experimental: as §1, §2, §3
# IB4 lectin [3] = biological target: T1, IB4 lectin; experiment: Cytofluorographic inhibition of IB4 lectin binding to PIEC cells; format: cell-based
# Experimental: FIGS. 3(A-C). […] (A); Staining of PIEC cells with IB4 lectin (1 μg/ml). (B) Staining of PIEC cells with NHS (final dilution of 1/50) and anti-human Ig. (C) Staining of PBL with IB4 lectin (μg/ml). Peptides were used at 5 mM (A and C) or at 20 mM (B). In each panel profile “a” represents binding in the presence of Gal pep 1 (SEQ ID No. 1), and profile “b” the binding in the presence of CD48 pep 1 (SEQ ID No. 11).
# FIGS. 6(A-B). […] Varying concentrations of peptides (shown in mM on horizontal axis) were explained for ability to inhibit the binding of IB4 lectin (1 μg/ml) to tie PIEC cells using cytofluorographic analysis. (a) Gal pep 1 (SEQ ID No. 1) (□), Muc pep 1 (SEQ ID No. 15) (∘).
# FIG. 7. […] All peptides used at 5 mM, using cytofluorograhic analysis. Inhibition calculated relative to no peptide control.
# (§4) The binding of lectin or antibody to the surface of pig cells was detected by hemagglutination, cytotoxicity or flow cytometry using the FACSCAN flow cytometer (Becton Dickinson, Mountain View, Calif.).
# as §3
# PIEC cells = experiment: Inhibition of cytotoxicity of NHS and complement on PIEC; format: cell-based, pig; settings: peptide 10 mM to 2.5 mM, NHS 1/25
# Source text: FIG. 4. Inhibition of cytotoxicity due to natural antibody and complement by Gal pep 1 (SEQ ID No. 1). Varying concentrations of Gal pep 1 (∘) or CD48 pep 1 (♦) (shown in mM on horizontal axis) were examined in a cytotoxicity assay using NHS (final dilution of 1/25) and PEEC cells as targets.
# as §4
# Human cytotoxic antibodies directly damage pig endothelial cells in a pig-to-human xenograft, therefore the ability of Gal pep 1 (SEQ ID No. 1) to inhibit the cytotoxicity of human antibodies on PIEC in vitro was tested; Gal pep 1 inhibited the cytotoxicity of NHS (10 mM to 2.5 mM), whereas CD48 pep 1 (SEQ ID No. 11) had no effect (FIG. 4).
# [4] = biological target: IB4 lectin from Griffonia simplicifolia (Griffonia simplicifolia); experiment: competition ELISA (I50): peptide inhibits biotinylated IB4 binding to Galα(1,3)Gal-BSA
# [5] = biological target: purified human anti-Galα(1,3)Gal IgG antibodies (human); experiment: competition ELISA (I50): peptide inhibits anti-Galα(1,3)Gal IgG binding to Galα(1,3)Gal-BSA
# [6] = biological target: human natural antibodies in normal human serum (NHS) (human); experiment: cell-based or functional assay
# [7] = biological target: BC1 anti-MUC1 monoclonal antibody; experiment: flow cytometry, competition with MUC1 on MUC1+3T3 (MOR5) cells
# [8] = biological target: IB4 lectin from Griffonia simplicifolia (Griffonia simplicifolia); experiment: flow cytometry, IB4 on pig PBL
# [9] = biological target: IB4 lectin from Griffonia simplicifolia (Griffonia simplicifolia); experiment: inhibition of IB4 reaction with galactomannan (not shown)
# [10] = biological target: human natural antibodies in normal human serum (NHS) (human); experiment: flow cytometry, NHS (1/50) natural antibodies on PIEC cells; no inhibition at lower concentrations
# [11] = biological target: IB4 lectin from Griffonia simplicifolia (Griffonia simplicifolia); experiment: flow cytometry, IB4 (1 µg/ml) on PIEC cells
# [12] = Table 3, anti-Galα(1,3)Gal antibody (IgG) 87 μgs/ml, read-out: I50 Anti-Galα(1,3)Gal
# [13] = varying peptide concentrations (FIG. 6b)
# [14] = Table 1, anti-Galα(1,3)Gal IgG 87 μg/ml, concentration giving 50% inhibition of binding, read-out: I50 anti-Galα(1,3)Gal IgG
molecule,measurement,setting,value
"LSGVRFSAARTAHPLPQKH [TNF pep 1, control peptide, MURINE TNFβ]","Inhibition of binding of IB4 to Galα(1,3)Gal-BSA",IB4 lectin [1],did not inhibit
APDTRPAPGSTAPPAH [Muc pep 4],"Inhibition of binding of anti-Galα(1,3)Gal IgG to Galα(1,3)Gal-BSA",[2],partial inhibition
same,IC50,[2]; [12],5000 µM
same,Inhibition of IB4 lectin binding to PIEC cells,IB4 lectin [3]; [13],partial inhibition
same,"Inhibition of binding of IB4 to Galα(1,3)Gal-BSA",IB4 lectin [1],complete inhibition
"TECKHKKGKVVSGKVLSY [CD4 pep 1, control peptide, murine CD4]","Inhibition of binding of anti-Galα(1,3)Gal IgG to Galα(1,3)Gal-BSA",[2],had no effect
same,"Inhibition of binding of IB4 to Galα(1,3)Gal-BSA",IB4 lectin [1],did not inhibit
CC(C)[C@H](NC(=O)[C@H](CO)NC(=O)[C@H](CO)NC(=O)[C@H](CCCNC(=N)N)NC(=O)[C@H](CCC(N)=O)NC(=O)[C@@H](NC(=O)[C@H](C)NC(=O)[C@H](CO)NC(=O)[C@@H](NC(=O)[C@H](CCC(=O)O)NC(=O)[C@H](CCCCN)NC(=O)[C@H](CCC(=O)O)NC(=O)CNC(=O)CNC(=O)[C@@H]1CCCN1C(=O)[C@@H](NC(=O)[C@H](CO)NC(=O)[C@H](CO)NC(=O)[C@H](C)NC(=O)[C@H](Cc1c[nH]cn1)NC(=O)CNC(=O)[C@H](CO)NC(=O)CNC(=O)[C@@H](N)[C@@H](C)O)[C@@H](C)O)[C@@H](C)O)[C@@H](C)O)C(=O)N1CCC[C@H]1C(=O)O [Muc pep 6],Inhibition of IB4 lectin binding to PIEC cells,IB4 lectin [3]; peptides at 5 mM (FIG. 7),partial inhibition
same,"Inhibition of binding of IB4 to Galα(1,3)Gal-BSA",IB4 lectin [1],complete inhibition
"KYPTTTPISTTTMVTPTPTPTGTQTPTTT [Muc pep 9, human Muc2 VNTR]",Inhibition of IB4 lectin binding to PIEC cells,IB4 lectin [3]; peptides at 5 mM (FIG. 7),did not inhibit
same,"Inhibition of binding of IB4 to Galα(1,3)Gal-BSA",IB4 lectin [1],no inhibition
"OCC1OC(OCC2OC(O)C(O)C(O)C2O)C(O)C(O)C1O (stereo not drawn) [Melibiose, Galα(1,6)Glc]","Inhibition of anti-Galα(1,3)Gal IgG binding to Galα(1,3)Gal-BSA (in words)",[2],inhibited
same,IC50,[2]; [14],125 to 300 µM
same,"Inhibition of IB4 lectin binding to Galα(1,3)Gal-BSA (in words)",IB4 lectin [1],inhibited
same,IC50,IB4 lectin [1]; read-out: I50 IB4,300 µM
CPAHGVTSAPDTRPAPGSTAP [Muc pep 1],"Inhibition of binding of anti-Galα(1,3)Gal IgG to Galα(1,3)Gal-BSA",[2],inhibited
same,IC50,[2]; [12],2500 µM
same,Inhibition of IB4 lectin binding to PIEC cells,IB4 lectin [3]; to a peptide concentration of 0.125 mM (FIG. 6a),almost complete inhibition
same,"Inhibition of binding of IB4 to Galα(1,3)Gal-BSA",IB4 lectin [1],complete inhibition
TSSASTGHATPLPVTP [Muc pep 11],"Inhibition of binding of anti-Galα(1,3)Gal IgG to Galα(1,3)Gal-BSA",[2],inhibited
same,IC50,[2]; [12],2500 µM
same,Inhibition of IB4 lectin binding to PIEC cells,IB4 lectin [3]; peptides at 5 mM (FIG. 7),inhibited
same,"Inhibition of binding of IB4 to Galα(1,3)Gal-BSA",IB4 lectin [1],complete inhibition
YTFDQKIVEWDSRKSKC [CD48 pep 1],Inhibition of cytotoxicity of NHS on PIEC,PIEC cells,had no effect
same,IC50,IB4 lectin [1],> 20000 µM
same,IC50,"IB4 lectin [1]; read-out: I50 IB4, Table 3, biotinylated IB4 lectin 6.25 μgs/ml",> 20000 µM
"OCC1OC(OC2C(O)C(O)OC(CO)C2O)C(O)C(O)C1O (stereo not drawn) [Galα(1,3)Gal]","Inhibition of anti-Galα(1,3)Gal IgG binding to Galα(1,3)Gal-BSA (in words)",[2],inhibited
same,IC50,[2]; [14],30 µM
same,IC50,[2]; [12],30 µM
same,"Inhibition of IB4 lectin binding to Galα(1,3)Gal-BSA (in words)",IB4 lectin [1],inhibited
same,IC50,"IB4 lectin [1]; Table 1, biotinylated IB4 lectin […], concentration giving 50% inhibition of binding, read-out: I50 IB4",< 30 µM
same,IC50,IB4 lectin [1]; read-out: I50 IB4,< 30 µM
PAPGSTAPPAHGVTSA [Muc pep 5],Inhibition of IB4 lectin binding to PIEC cells,IB4 lectin [3]; [13],partial inhibition
same,"Inhibition of binding of IB4 to Galα(1,3)Gal-BSA",IB4 lectin [1],complete inhibition
"TGFNQYKTEAASRVNL [Muc pep 8, human Muc1 COOH to VNTR]",Inhibition of IB4 lectin binding to PIEC cells,IB4 lectin [3]; peptides at 5 mM (FIG. 7),inhibited
WEADLHWS [Scram pep 1],IC50,[2]; [12],> 20000 µM
"RSSVPSSTEKNAVSMTSSVL [Muc pep 7, human Muc1 NH2 to VNTR]",Inhibition of IB4 lectin binding to PIEC cells,IB4 lectin [3]; peptides at 5 mM (FIG. 7),did not
same,"Inhibition of binding of IB4 to Galα(1,3)Gal-BSA",IB4 lectin [1],no inhibition
"CHSTPSFTSSITTTETTS [Muc pep 10, human Muc3 VNTR]",Inhibition of IB4 lectin binding to PIEC cells,IB4 lectin [3]; peptides at 5 mM (FIG. 7),inhibited
"RYHHYSSNFSIPKANHSHSGDYYCKGSL [FcR pep 1, control peptide, MURINE FCRIIβ2]","Inhibition of binding of anti-Galα(1,3)Gal IgG to Galα(1,3)Gal-BSA",[2],had no effect
B1,IC50,[4],> 20000 µM
same,IC50,[5],> 20000 µM
B2,IC50,[4],156 µM
same,IC50,[5],2500 µM
B3,IC50,[4],1250 µM
B4,blocking of hemagglutination of pig RBC by NHS,[6],5 mM
same,lowest peptide concentration that inhibited BC1 binding to MUC1+3T3 cells,[7],0.156 mM
same,peptide concentration that blocked IB4 binding to PBL,[8],5 mM
same,IC50,[4],300 µM
same,IC50,[9],5000 µM
same,IC50,[5],10000 µM
same,peptide concentration at which inhibition occurred,[10],20 mM
B5,IC50,[4],78 µM
same,IC50,[5],2500 µM
same,concentration down to which inhibition was almost complete,[11],0.125 mM
B6,IC50,[4],> 20000 µM
same,IC50,[5],> 20000 µM
